Results as given in patent publication EP4818176A1, “TETRACYCLIC DERIVATIVE INHIBITOR, AND PREPARATION METHOD AND USE THEREFOR” (Shanghai Hansoh Biomedical Co., Ltd., priority 2023, dated 2025).
Read-outs that look alike come from different tables or passages of the source.

Assays:
[1] = target: T1, PRMT5/MEP50-MTA protein complex (Homo sapiens, UniProt O14744); assay: Thermal shift assay: thermal stability (melting temperature) of PRMT5/MEP50-MTA protein complex; format: binding; conditions: final compound concentration 8 µM; 2 µM PRMT5/MEP50, 2 µM MTA; Tm minus Tm of DMSO vehicle control
T1 construct: purchased Viva Biotech
T1 sequence (O14744 whole entry): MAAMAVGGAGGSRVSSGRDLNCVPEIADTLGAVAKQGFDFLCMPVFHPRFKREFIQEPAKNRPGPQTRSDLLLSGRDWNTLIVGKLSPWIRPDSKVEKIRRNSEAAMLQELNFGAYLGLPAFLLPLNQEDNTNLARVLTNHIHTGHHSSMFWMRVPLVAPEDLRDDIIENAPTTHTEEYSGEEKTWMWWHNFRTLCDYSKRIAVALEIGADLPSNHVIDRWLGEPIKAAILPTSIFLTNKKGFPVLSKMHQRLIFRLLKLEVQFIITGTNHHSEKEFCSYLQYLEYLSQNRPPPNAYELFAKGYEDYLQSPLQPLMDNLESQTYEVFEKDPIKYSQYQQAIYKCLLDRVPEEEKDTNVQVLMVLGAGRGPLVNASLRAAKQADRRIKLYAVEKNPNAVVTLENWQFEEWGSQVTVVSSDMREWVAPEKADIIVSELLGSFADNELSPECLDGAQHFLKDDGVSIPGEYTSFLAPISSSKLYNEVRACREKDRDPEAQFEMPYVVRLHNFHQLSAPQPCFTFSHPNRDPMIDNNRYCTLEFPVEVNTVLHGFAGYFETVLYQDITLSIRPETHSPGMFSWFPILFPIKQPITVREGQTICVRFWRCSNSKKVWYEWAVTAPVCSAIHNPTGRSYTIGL
T1 sequence (Q9BQA1 whole entry partner): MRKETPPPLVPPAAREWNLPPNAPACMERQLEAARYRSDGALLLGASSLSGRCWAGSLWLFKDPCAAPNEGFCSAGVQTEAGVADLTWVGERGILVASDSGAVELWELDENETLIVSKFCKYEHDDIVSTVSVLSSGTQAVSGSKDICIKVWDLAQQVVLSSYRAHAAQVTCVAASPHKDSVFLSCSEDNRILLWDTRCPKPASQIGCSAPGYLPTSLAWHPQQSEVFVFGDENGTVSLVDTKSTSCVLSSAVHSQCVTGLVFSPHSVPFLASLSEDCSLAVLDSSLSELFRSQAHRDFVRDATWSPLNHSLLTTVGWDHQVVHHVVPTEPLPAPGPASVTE
From the text: Test Example 1: Determination of the ability of the compounds of the present invention to improve the thermal stability (melting temperature) of the PRMT5/MEP50-MTA protein complex.
1 Experimental objective: The objective of this test example is to determine the ability of the compound to improve the thermal stability of the PRMT5/MEP50-MTA protein complex, resulting in an increase in the protein melting temperature. 2 Experimental instruments: Quantitative PCR instrument (Quantstudio6 Flex) was purchased from Life Technologies; pipettes were purchased from Eppendorf or Rainin. 3 Experimental reagents and consumables: PRMT5/MEP50 protein was prepared by Viva Biotech; HEPES was purchased from Thermo Fisher Scientific (Cat. No. 15630080); DTT was purchased from Sigma (Cat. No. 43816-10ml); sodium chloride was purchased from Invitrogen (Cat. No. AM9760G); Protein Thermal Shift™ Dye Kit was purchased from Thermo Fisher Scientific (Cat. No. 4461146); methylthioadenosine (MTA) was purchased from Sigma (Cat. No. D5011). 4 Experimental method: In this experiment, the thermal shift method was used to measure the change in the melting temperature (Tm) of the PRMT5/MEP50-MTA protein complex before and after compound binding, thereby characterising the ability of the compound to improve the thermal stability of the PRMT5/MEP50-MTA protein complex. A solution containing 50 mM HEPES, 10 mM DTT, 2 µM MTA, SYPRO Orange and 250 mM NaCl was prepared as the experimental buffer. Human PRMT5/MEP50 protein was added to a final concentration of 2 µM, and the mixture was incubated at room temperature for 30 minutes. The above reaction mixture was aliquoted into 8-strip PCR tubes at 19.5 µL per tube. Then 0.5 µL of test compound or DMSO was added to each tube, providing a total reaction volume of 20 µL and a final compound concentration of 8 µM. 2.5% DMSO was set as the vehicle control. After incubation at room temperature for 10 minutes, the PCR tubes were placed in a PCR instrument, and the melt curve function was selected to measure the melting temperature of the PRMT5/MEP50-MTA protein complex in different treatment groups (heated from 25°C to 95°C, 0.03°C/s). 5 Experimental data processing method: The experimental data files from the PCR instrument were imported into the thermal shift software to obtain the melting temperature (Tm) for each treatment group.

[2] = tested on: MTAP Knockout HCT116 cells; assay: Cell proliferation inhibition (CellTiter-Glo), HCT116 MTAP knockout cells; format: cell-based; conditions: for Selectivity: HCT116 IC50 versus MTAP Knockout HCT116 IC50; for IC50: Homo sapiens
From the text: (§1) Test Example 2: Determination of the inhibitory effect of the compounds of the present invention on the proliferation activity of HCT116 and MTAP Knockout HCT116 cells.
(§2) 1 Experimental objective: The objective of this test example is to determine the inhibitory effect of the compound on the proliferation activity of HCT116 wild-type and HCT116 MTAP knockout cells. 2 Experimental instruments: Centrifuge (Eppendorf 5810R); microplate reader (BioTek Synergy H1 or PerkinElmer Envision); pipette (Eppendorf or Rainin). 3 Experimental reagents: HCT116 and MTAP Knockout HCT116 cells were purchased from Nanjing Cobioer; Cell Titer-Glo was purchased from Promega (Cat. No. G7573); McCoy'5A was purchased from Gibco (Cat. No. 12330031); FBS was purchased from Gibco (Cat. No. 10091148); PBS was purchased from Gibco (Cat. No. 10010023); trypsin was purchased from Gibco (Cat. No. 25200056); cell culture plates were purchased from Corning (Cat. No. 3610). 4 Experimental method: HCT116 and MTAP Knockout HCT116 cells were cultured in McCoy'5A medium containing 10% FBS until an appropriate cell density was reached. The cells were then collected and adjusted to a suitable concentration using complete medium. The cell suspension was seeded into a 96-well plate at 90 µL per well and allowed to adhere overnight in a 37°C, 5% CO2 incubator. Compound solutions of various concentrations were prepared using DMSO and culture medium, with a vehicle control set. The compound solutions were added to the 96-well plate at 10 µL per well, and the plate was incubated in a 37°C, 5% CO2 incubator for an additional 72-240 hours. After incubation, CellTiter-Glo solution was added, and the mixture was mixed uniformly by shaking, followed by incubation in the dark for 10 to 30 minutes. Luminescence was measured using a Synergy H1 or Envision microplate reader. 5 Experimental data processing method: The inhibition rate was calculated using the luminescence signal values, and the concentrations along with the inhibition rates were subjected to non-linear regression curve fitting using Graphpad Prism software to obtain the IC50 values.

HCT116 wild-type cells = assay: Cell proliferation inhibition (CellTiter-Glo), HCT116 wild-type cells; format: cell-based; conditions: Homo sapiens
From the text: as §1, §2

[3] = Pharmacokinetics in rats (plasma) after oral administration; format: in vivo; conditions: rat, po, SD rats, p.o. 5 mg/kg; for Cmax: read-out: Cmax; for MRT inf: read-out: MRT0-∞; for Tmax: read-out: tmax
Experimental: Test Example 4: Determination of the pharmacokinetics of the compounds of the present invention in rats (plasma) after oral administration.
1 Study objective: SD rats were used as test animals to study the pharmacokinetic behaviour of the following example compounds in rats (plasma) after oral administration at a dose of 5 mg/kg. 2 Test scheme • 2.1 Test drugs: Vehicle formula: 0.5% CMC-Na (1% Tween 80); the examples of the present invention, made in house. • 2.2 Test animals: 3 SD rats per group, male, purchased from Shanghai Bikai Keyi Biotechnology Co., Ltd., with animal license number (SCXK (Shanghai) 2018-0006, No.20180006037467). • 2.3 Administration: 3 SD rats per group, male, were fasted overnight and then respectively administered PO at a dose of 5 mg/kg and a volume of 10 mL/kg. • 2.4 Sample collection: 0.2 mL of blood was collected from the jugular vein of rats before administration and at 0, 0.25, 0.5, 1, 2, 4, 6, 8 and 24 h after administration, and placed in EDTA-K2test tubes, and the test tubes were centrifuged at 6,000 rpm at 4°C for 6 min to separate the plasma, which was stored at -80°C. The animals were fed 4 h after administration. • 2.5 Sample treatment • 1) 160 uL of acetonitrile was added to 40 uL of plasma sample for precipitation, and after mixing, the mixture was centrifuged at 3,500 × g for 5-20 minutes. • 2) 100 uL of the treated supernatant solution was taken for LC/MS/MS analysis to determine the concentration of the test compounds. • 2.6 Liquid phase analysis • Liquid phase conditions: Shimadzu LC-20AD pump;mass spectrometry conditions: AB Sciex API 4000 mass spectrometer • Chromatographic column: Phenomenex Gemiu 5 um C18 50 × 4.6 mm • Mobile phase: solution A: 0.1% formic acid in water, solution B: methanol • Flow rate: 1.0 mL/min, elution time: 0-4.0 min, with eluents as follows:
Experimental results and analysis: The main pharmacokinetic parameters were calculated using WinNonlin 8.2.

[4] = HCT-116, read-out: MTAP Knockout HCT116 IC50

SMILES: CC1OCc2c1c(N)nc1cc3c(cc21)C(=O)N(Cc1ccc(S(F)(F)(F)(F)F)cn1)CCCOC3 (racemic) [Example 437, 4-Amino-3-methyl-12-((5-(pentafluorosulphanyl)pyridin-2-yl)methyl)-3,7,9,10,11,12-hexahydrofuro[3,4-c][1,5]oxazolo[7,8-g]quinolin-13(1H)-one]
- ΔTm at 8 µM [1]: 12.2 °C
- Selectivity [2]: 64
- IC50 [2, 4]: 3 nM
- IC50 (HCT116 wild-type cells; HCT-116, read-out: HCT116 IC50): 191 nM

SMILES: Nc1nc2cc3c(cc2c2c1COC2)C(=O)N(Cc1ccc(-c2c(F)cccc2F)cn1)CCCOC3 [Example 431, 4-Amino-12-(5-(2,6-difluorophenyl)pyridin-2-yl)methyl-3,7,9,10,11,12-hexahydrofuro[3,4-c][1,5]oxazolino[7,8-g]quinolin-13(1H)-one]
- ΔTm at 8 µM [1]: 12.3 °C
- Selectivity [2]: 61
- IC50 [2, 4]: 3.3 nM
- IC50 (HCT116 wild-type cells; HCT-116, read-out: HCT116 IC50): 200 nM

SMILES: Nc1nc2cc3c(cc2n2cncc12)C(=O)N(Cc1ccc(-c2c(F)cncc2F)cn1)CCC/C=C\3 [Example 419, (Z)-4-Amino-12-(3',5'-difluoro-[3,4'-bipyridin]-6-yl)methyl-9,10,11,12-tetrahydro-13H-azonino[4,3-g]imidazo[1,5-a]quinoxalin-13-one]
- ΔTm at 8 µM [1]: 12.7 °C
- Selectivity [2]: 14
- IC50 ([2]; HCT-116, MTAP Knockout HCT116 cells, proliferation inhibition, Cell Titer-Glo, read-out: MTAP Knockout HCT116 IC50): 3.6 nM
- IC50 (HCT116 wild-type cells; HCT-116, HCT116 wild-type cells, proliferation inhibition, Cell Titer-Glo, read-out: HCT116 IC50): 51 nM

SMILES: CC(c1ccc(C(F)(F)F)cn1)N1CCC/C=C\c2cc3nc(N)c4cncn4c3cc2C1=O (racemic) [Example 352, (Z)-4-Amino-12-(1-(5-(trifluoromethyl)pyridin-2-yl)ethyl)-9,10,11,12-tetrahydro-13H-azo[4,3-g]imidazo[1,5-a]quinoxalin-13-one]
- ΔTm at 8 µM [1]: 11 °C

SMILES: Nc1nc2cc3c(cc2n2cncc12)C(=O)N(C1COCc2nc(C(F)(F)F)ccc21)CCCC/C=C\3 (single isomer, unassigned) [Example 62-P1]
- ΔTm at 8 µM [1]: 10.8 °C
- AUC(0-inf) ([3]; male): 800 ng·h/mL
- half-life ([3]; male): 2.2 h
- Cmax ([3]; male): 201 ng/mL
- MRT inf ([3]; male): 3.8 h
- Tmax ([3]; male): 1 h

SMILES: CC(c1ccc(C(F)(F)F)nc1)N1CCC/C=C\c2cc3nc(N)c4cncn4c3cc2C1=O (stereo not shown) [Example 415, (Z)-4-Amino-12-(1-(6-(trifluoromethyl)pyridin-3-yl)ethyl)-9,10,11,12-tetrahydro-13H-azo[4,3-g]imidazo[1,5-a]quinoxalin-13-one]
- ΔTm at 8 µM [1]: 10.3 °C

SMILES: Nc1nc2cc3c(cc2n2cncc12)C(=O)N(C1COCc2nc(C(F)(F)F)ccc21)CCCCC3 (stereo not shown) [Example 159, 4-Amino-12-(2-(trifluoromethyl)-5,8-dihydro-6H-pyrano[3,4-b]pyridin-5-yl)-7,8,9,10,11,12-hexahydro-13H-azonino[4,3-g]imidazo[1,5-a]quinoxalin-13-one]
- ΔTm at 8 µM [1]: 10.5 °C

SMILES: Nc1nc2cc3c(cc2n2cncc12)C(=O)N(C1COCc2nc(C(F)(F)F)ccc21)CCCCOC3 (stereo not shown) [Example 48, 4-Amino-13-(2-(trifluoromethyl)-5,8-dihydro-6H-pyrano[3,4-b]pyridin-5-yl)-10,11,12,13-tetrahydro-7H-imidazo [1,5-a] [1,6] oxazino [3,4-g] quinoxalin-14(9H)-one]
- ΔTm at 8 µM [1]: 10.9 °C

SMILES: C[C@@H]1CCCN(Cc2ccc(C(F)(F)F)cn2)C(=O)c2cc3c(cc2C1)nc(N)c1cncn13 [Example 514-P1, (R)-4-amino-8-methyl-12-((5-(trifluoromethyl)pyridin-2-yl)methyl)-7,8,9,10,11,12-hexahydro-13H-azo[4,3-g]imidazo[1,5-a]quinoxalin-13-one]
- ΔTm at 8 µM [1]: 11.3 °C

SMILES: Nc1nc2cc3c(cc2n2cncc12)C(=O)N(C1COCc2cc(C(F)(F)F)ccc21)CCC/C=C\3 (stereo not shown) [Example 167, (Z)-4-Amino-12-(7-trifluoromethylisochroman-4-yl)-9,10,11,12-tetrahydro-13H-azonino[4,3-g]imidazo[1,5-a]quinoxalin-13-one]
- ΔTm at 8 µM [1]: 12.3 °C

SMILES: Nc1nc2cc3c(cc2n2cncc12)C(=O)N(Cc1ccc(C(F)(F)F)nn1)CCC/C=C\3 [Example 391, (Z)-4-Amino-12-(6-(trifluoromethyl)pyridazin-3-yl)methyl-9,10,11,12-tetrahydro-13H-azonino[4,3-g]imidazo[1,5-a]quinoxalin-13-one]
- ΔTm at 8 µM [1]: 10.9 °C

SMILES: CN1CCCN(Cc2ccc(C(F)(F)F)cn2)C(=O)c2cc3c(cc2C1)nc(N)c1cnn(C)c13 [Example 502, 4-Amino-1,8-dimethyl-12-((5-(trifluoromethyl)pyridin-2-yl)methyl)-7,8,9,10,11,12-hexahydro-[1,5]diazonino[7,8-g]pyrazolo[4,3-c]quinolin-13(1H)-one]
- ΔTm at 8 µM [1]: 10.6 °C

SMILES: Nc1nc2cc3c(cc2n2cncc12)C(=O)N(C1COCc2nc(C(F)(F)F)ccc21)CCC/C=C\3 (stereo not shown) [Example 158, (Z)-4-Amino-12-(2-(trifluoromethyl)-5,8-dihydro-6H-pyrano[3,4-b]pyridin-5-yl)-9,10,11,12-tetrahydro-13H-azonino[4,3-g]imidazo[1,5-a]quinoxalin-13-one]
- ΔTm at 8 µM [1]: 11.3 °C
- AUC(0-inf) ([3]; male): 712 ng·h/mL
- half-life ([3]; male): 1.3 h
- Cmax ([3]; male): 287 ng/mL
- MRT inf ([3]; male): 2 h
- Tmax ([3]; male): 0.5 h

SMILES: C[C@@H]1CCN([C@@H]2COCc3nc(C(F)(F)F)ccc32)C(=O)c2cc3c(cc2CO1)nc(N)c1cncn13 [Example 15-P1, (R)-4-amino-9-methyl-12-((S)-2-(trifluoromethyl)-5,8-dihydro-6H-pyrano[3,4-b]pyridin-5-yl)-9,10,11,12-tetrahydroimidazo[1,5-a][1,5]oxazolo[8,7-g]quinoxalin-13(7H)-one and (S)-4-amino-9-methyl-12-((R)-2-(trifluoromethyl)-5,8-dihydro-6H-pyrano[3,4-b]pyridin-5-yl)-9,10,11,12-tetrahydroimidazo[1,5-a][1,5]oxazolo[8,7-g]quinoxalin-13(7H)-one]
- ΔTm at 8 µM [1]: 10.1 °C

SMILES: Cc1nc(CN2CC/C=C\c3cc4nc(N)c5cncn5c4cc3C2=O)ccc1C(F)(F)F [Example 688, (Z)-4-Amino-11-((6-methyl-5-(trifluoromethyl)pyridin-2-yl)methyl)-10,11-dihydroazo[4,3-g]imidazo[1,5-a]quinoxalin-12(9H)-one]
- ΔTm at 8 µM [1]: 11.6 °C

SMILES: Nc1nc2cc3c(cc2n2cncc12)C(=O)N([C@@H]1COCc2nc(C(F)(F)F)ccc21)CC/C=C\3 (single isomer, unassigned) [Example 311-P1]
- ΔTm at 8 µM [1]: 10.9 °C
- AUC(0-inf) ([3]; in vivo): 1780 ng·h/mL
- half-life ([3]; in vivo): 1.8 h
- Cmax ([3]; in vivo): 330 ng/mL
- MRT inf ([3]; in vivo): 3.7 h
- Tmax ([3]; in vivo): 2.3 h
